Laboratory results from US9422240B2, “Partially saturated nitrogen-containing heterocyclic compound” (TAISHO PHARMACEUTICAL CO., LTD, priority 2012, dated 2016).

target: human PHD2 (Homo sapiens (Human), UniProt Q9GZT9); assay: Test 2: human PHD2 inhibitory activity, fluorescence polarization assay of HIF-1α peptide proline hydroxylation; assay type: biochemical; conditions: human PHD2, fluorescence polarization assay, 20-min incubation at 30° C.
Protocol: (1) Expression and Preparation of Human PHD2
A registered sequence of human PHD2 (NM_022051) was introduced into pcDNA3.1/Hygro(+) vector (Invitrogen), and the sequence was verified. […] The suspension of disrupted cells was centrifuged at 4° C. and 100,000×g for 30 minutes and the supernatant was recovered as a cell lysate.
(2) Measurement of Human PHD2 Inhibitory Activity
The activity of human PHD2 enzyme was measured with a substrate which is a 19-residue partial peptide based on the sequence of HIF-1α; specifically, the hydroxylation of a proline residue in the peptide was measured by FP (Fluorescence Polarization).
A test compound and the substrate solution were preliminarily added onto 384-well plates and reaction was initiated by adding a human PHD2 enzyme solution (40 ng/well). After 20-min incubation at 30° C., an EDTA-containing quench solution was added and the amount of the proline residues hydroxylated via binding to an added HIF—OH antibody solution was quantified by fluorescence polarization.
The fluorescence polarization of each well was measured and the human PHD2 inhibitory activity of each test compound was calculated on the basis of the values for the test compound-free group.

Chain of human PHD2 (Q9GZT9 whole entry): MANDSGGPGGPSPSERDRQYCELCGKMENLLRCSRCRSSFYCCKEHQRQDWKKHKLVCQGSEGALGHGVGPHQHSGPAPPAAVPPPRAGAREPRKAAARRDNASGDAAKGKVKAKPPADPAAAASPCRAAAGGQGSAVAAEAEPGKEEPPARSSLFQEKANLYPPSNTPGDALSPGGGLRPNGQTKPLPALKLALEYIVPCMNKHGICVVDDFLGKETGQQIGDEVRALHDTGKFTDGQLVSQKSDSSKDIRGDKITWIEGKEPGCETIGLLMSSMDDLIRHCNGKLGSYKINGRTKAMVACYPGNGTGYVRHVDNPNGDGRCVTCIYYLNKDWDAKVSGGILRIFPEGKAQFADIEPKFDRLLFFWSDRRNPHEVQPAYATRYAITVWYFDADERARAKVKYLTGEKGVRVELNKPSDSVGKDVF

IC50 [nM]	Compound
39	O=C(O)CNC(=O)C1=C(O)CCN(Cc2cnc(Oc3ccc(Cl)cc3)cn2)C1=O [Ex. 1-440]
21	O=C(O)CNC(=O)C1=C(O)CCN(Cc2cnc(Oc3ccc(C4CC4)cc3)cn2)C1=O [Ex. 1-443]

Continued, compound first:

Compound	IC50 [nM]
Cc1ccc(Oc2cnc(CN3CCC(O)=C(C(=O)NCC(=O)O)C3=O)cn2)cc1 [Ex. 1-385]	54
Cc1ccc(Oc2ccc(CN3CCC(O)=C(C(=O)NCC(=O)O)C3=O)cc2)cc1C [Ex. 1-386]	48
Cc1ccc(Oc2ncc(CN3CCC(O)=C(C(=O)NCC(=O)O)C3=O)cc2Cl)cc1 [Ex. 1-392]	26
Cc1ccc(Oc2ncc(CN3CCC(O)=C(C(=O)NCC(=O)O)C3=O)cc2F)cc1 [Ex. 1-393]	32
O=C(O)CNC(=O)C1=C(O)CCN(Cc2ccc(Oc3ccc(C4CC4)cn3)cc2)C1=O [Ex. 1-404]	56
Cc1ccc(Oc2ncc(CN3CCC(O)=C(C(=O)NCC(=O)O)C3=O)cn2)cc1 [Ex. 1-408]	72
Cc1cc(CN2CCC(O)=C(C(=O)NCC(=O)O)C2=O)cnc1Oc1ccc(Cl)cc1 [Ex. 1-409]	25

same assay, conditions: test compound's concentration 1 μM; Test 2, fluorescence polarization assay

Percent inhibition (% at 1 μM) [%]	Compound
82	O=C(O)CNC(=O)C1=C(O)CCN(CC2CCC(Oc3ccccc3)CC2)C1=O (stereo not drawn) [Ex. 1-391]

same assay, conditions: test compound's concentration 1 μM; Test 2, fluorescence polarization assay; read-out: Percent inhibition (% at 1 μM)

inhibition at 1 µM [%]	Compound
75	CC(C)(CN1CCC(O)=C(C(=O)NCC(=O)O)C1=O)c1ccc(Cl)cc1 [Ex. 1-413]
96	O=C(O)CNC(=O)C1=C(O)CCN(Cc2ccc(-c3ccc(C4CC4)nc3)cc2)C1=O [Ex. 1-414]
94	Cc1ccc(OCc2ccc(CN3CCC(O)=C(C(=O)NCC(=O)O)C3=O)cc2)cn1 [Ex. 1-415]
95	O=C(O)CNC(=O)C1=C(O)CCN(Cc2ccc(COc3ccccc3)cc2)C1=O [Ex. 1-416]
99	Cc1ccc(OCc2ccc(CN3CCC(O)=C(C(=O)NCC(=O)O)C3=O)cc2)cc1 [Ex. 1-417]
98	Cc1ccc(COc2ccc(CN3CCC(O)=C(C(=O)NCC(=O)O)C3=O)cn2)cc1 [Ex. 1-418]
98	O=C(O)CNC(=O)C1=C(O)CCN(Cc2ccc(OCc3ccc(Cl)cc3)nc2)C1=O [Ex. 1-419]
92	O=C(O)CNC(=O)C1=C(O)CCN(Cc2cnc(OCCC3CC3)c(Cl)c2)C1=O [Ex. 1-420]
99	COc1cccc(-c2ccc(CN3CCC(O)=C(C(=O)NCC(=O)O)C3=O)cc2)n1 [Ex. 1-421]
100	O=C(O)CNC(=O)C1=C(O)CCN(Cc2ccc(-c3ccc(Cl)cn3)cc2)C1=O [Ex. 1-422]
96	O=C(O)CNC(=O)C1=C(O)CCN(Cc2ccc(COc3ccc(C(F)(F)F)nc3)cc2)C1=O [Ex. 1-423]
97	O=C(O)CNC(=O)C1=C(O)CCN(Cc2ccc(COc3ccc(C(F)(F)F)cn3)cc2)C1=O [Ex. 1-424]
90	COc1cccnc1-c1ccc(CN2CCC(O)=C(C(=O)NCC(=O)O)C2=O)cc1 [Ex. 1-425]
88	COc1ccc(-c2ccc(CN3CCC(O)=C(C(=O)NCC(=O)O)C3=O)cc2)nc1 [Ex. 1-426]
95	O=C(O)CNC(=O)C1=C(O)CCN(CC2CCC(OCc3ccc(Cl)cc3)CC2)C1=O (stereo not drawn) [Ex. 1-427]
100	O=C(O)CNC(=O)C1=C(O)CCN(C[C@H]2CC[C@H](Oc3ccc(Cl)cc3)CC2)C1=O [Ex. 1-428]
96	O=C(O)CNC(=O)C1=C(O)CCN(C[C@H]2CC[C@H](OCc3ccc(Cl)cc3)CC2)C1=O [Ex. 1-429]
95	Cc1ccc(O[C@H]2CC[C@H](CN3CCC(O)=C(C(=O)NCC(=O)O)C3=O)CC2)cc1 [Ex. 1-430]
99	CCc1ccc(O[C@H]2CC[C@H](CN3CCC(O)=C(C(=O)NCC(=O)O)C3=O)CC2)cc1 [Ex. 1-431]
93	O=C(O)CNC(=O)C1=C(O)CCN(C[C@H]2CC[C@H](Oc3ccc(Cl)cn3)CC2)C1=O [Ex. 1-432]

inhibition at 1 µM [%]	Compound
76	O=C(O)CNC(=O)C1=C(O)CCN(C[C@H]2CC[C@@H](Oc3ccc(F)cn3)CC2)C1=O [Ex. 1-433]
85	O=C(O)CNC(=O)C1=C(O)CCN(C[C@H]2CC[C@@H](Oc3ccc(F)cc3)CC2)C1=O [Ex. 1-434]
87	Cc1ccc(O[C@H]2CC[C@H](CN3CCC(O)=C(C(=O)NCC(=O)O)C3=O)CC2)nc1 [Ex. 1-435]
85	COc1ccnc(-c2ccc(CN3CCC(O)=C(C(=O)NCC(=O)O)C3=O)cc2)c1 [Ex. 1-436]
92	O=C(O)CNC(=O)C1=C(O)CCN(C[C@H]2CC[C@H](Oc3ccc(C(F)(F)F)cn3)CC2)C1=O [Ex. 1-437]
90	O=C(O)CNC(=O)C1=C(O)CCN(C[C@H]2CC[C@H](OCc3ccc(F)cc3)CC2)C1=O [Ex. 1-438]
81	O=C(O)CNC(=O)C1=C(O)CCN(C[C@H]2CC[C@H](Oc3ccccn3)CC2)C1=O [Ex. 1-439]
98	O=C(O)CNC(=O)C1=C(O)CCN(Cc2cnc(Oc3ccc(Cl)cc3)cn2)C1=O [Ex. 1-440]
98	O=C(O)CNC(=O)C1=C(O)CCN(C[C@H]2CC[C@H](Oc3ccc(C4CC4)cc3)CC2)C1=O [Ex. 1-442]
101	O=C(O)CNC(=O)C1=C(O)CCN(Cc2cnc(Oc3ccc(C4CC4)cc3)cn2)C1=O [Ex. 1-443]
88	O=C(O)CNC(=O)C1=C(O)CCN(C[C@H]2CC[C@H](OCc3ccccc3)CC2)C1=O [Ex. 1-444]
75	O=C(O)CNC(=O)C1=C(O)CCN(C[C@H]2CC[C@H](OCC3CC3)CC2)C1=O [Ex. 1-445]
94	O=C(O)CNC(=O)C1=C(O)CCN(C[C@H]2CC[C@H](Oc3ccc(C4CC4)cn3)CC2)C1=O [Ex. 1-446]
98	O=C(O)CNC(=O)C1=C(O)CCN(C[C@H]2CC[C@H](OCCc3ccccc3)CC2)C1=O [Ex. 1-447]
92	O=C(O)CNC(=O)C1=C(O)CCN(C[C@H]2CC[C@H](OCC3CCCC3)CC2)C1=O [Ex. 1-448]
99	CCc1ccc(O[C@H]2CC[C@H](CN3CCC(O)=C(C(=O)NCC(=O)O)C3=O)CC2)nc1 [Ex. 1-449]
97	Cc1ccc(CO[C@H]2CC[C@H](CN3CCC(O)=C(C(=O)NCC(=O)O)C3=O)CC2)cc1 [Ex. 1-450]
82	O=C(O)CNC(=O)C1=C(O)CCN(C[C@H]2CC[C@H](OC3CCC3)CC2)C1=O [Ex. 1-451]
67	CC(Cc1ccc(Cl)cc1)N1CCC(O)=C(C(=O)NCC(=O)O)C1=O (stereo not drawn) [Ex. 1-452]

Further lines, the compound ahead of its results:

Compound	inhibition at 1 µM [%]
Cc1cc(CN2CCC(O)=C(C(=O)NCC(=O)O)C2=O)ccc1OCc1ccccc1 [Ex. 1-381]	92
O=C(O)CNC(=O)C1=C(O)CCN(Cc2ccc(OCCC(F)(F)F)cc2)C1=O [Ex. 1-382]	83
Cc1cc(CN2CCC(O)=C(C(=O)NCC(=O)O)C2=O)ccc1OCCC(F)(F)F [Ex. 1-383]	83
O=C(O)CNC(=O)C1=C(O)CCN(Cc2ccc(OCCC(F)(F)F)c(F)c2)C1=O [Ex. 1-384]	82
Cc1ccc(Oc2cnc(CN3CCC(O)=C(C(=O)NCC(=O)O)C3=O)cn2)cc1 [Ex. 1-385]	93
Cc1ccc(Oc2ccc(CN3CCC(O)=C(C(=O)NCC(=O)O)C3=O)cc2)cc1C [Ex. 1-386]	92
Cc1ccc(COc2ccc(CN3CCC(O)=C(C(=O)NCC(=O)O)C3=O)cc2F)cc1 [Ex. 1-387]	93
Cc1cc(CN2CCC(O)=C(C(=O)NCC(=O)O)C2=O)ccc1OCc1ccc(F)cc1 [Ex. 1-388]	92
Cc1cc(CN2CCC(O)=C(C(=O)NCC(=O)O)C2=O)ccc1OCc1ccc(OC(F)(F)F)cc1 [Ex. 1-389]	69
O=C(O)CNC(=O)C1=C(O)CCN(CC2CCC(Oc3ccccc3)CC2)C1=O (stereo not drawn) [Ex. 1-390]	89
Cc1ccc(Oc2ncc(CN3CCC(O)=C(C(=O)NCC(=O)O)C3=O)cc2Cl)cc1 [Ex. 1-392]	98
Cc1ccc(Oc2ncc(CN3CCC(O)=C(C(=O)NCC(=O)O)C3=O)cc2F)cc1 [Ex. 1-393]	98
Cc1nc(COc2ccc(CN3CCC(O)=C(C(=O)NCC(=O)O)C3=O)cc2Cl)c(C)o1 [Ex. 1-394]	83
O=C(O)CNC(=O)C1=C(O)CCN(C[C@@H]2CC[C@@H](c3ccccc3)C2)C1=O [Ex. 1-395]	90
CC1(COc2ccc(CN3CCC(O)=C(C(=O)NCC(=O)O)C3=O)cn2)CC1 [Ex. 1-396]	89
Cc1ccc(COc2ccc(CN3CCC(O)=C(C(=O)NCC(=O)O)C3=O)cc2)cn1 [Ex. 1-398]	91
O=C(O)CNC(=O)C1=C(O)CCN(CC2(c3ccccc3)CC2)C1=O [Ex. 1-399]	55
Cc1ncccc1COc1ccc(CN2CCC(O)=C(C(=O)NCC(=O)O)C2=O)cc1 [Ex. 1-401]	90
O=C(O)CNC(=O)C1=C(O)CCN(C[C@H]2CC[C@H](Oc3ccc(F)cc3)CC2)C1=O [Ex. 1-402]	109
O=C(O)CNC(=O)C1=C(O)CCN(C[C@H]2CC[C@H](Oc3ccc(C(F)(F)F)cc3)CC2)C1=O [Ex. 1-403]	102
O=C(O)CNC(=O)C1=C(O)CCN(Cc2ccc(Oc3ccc(C4CC4)cn3)cc2)C1=O [Ex. 1-404]	96
O=C(O)CNC(=O)C1=C(O)CCN(Cc2ccc(OCc3ccc(Cl)cn3)cc2)C1=O [Ex. 1-405]	90
Cc1cnc(COc2ccc(CN3CCC(O)=C(C(=O)NCC(=O)O)C3=O)cc2)s1 [Ex. 1-406]	86
O=C(O)CNC(=O)C1=C(O)CCN(Cc2ccc(OCc3cn4ccsc4n3)cc2)C1=O [Ex. 1-407]	85
Cc1ccc(Oc2ncc(CN3CCC(O)=C(C(=O)NCC(=O)O)C3=O)cn2)cc1 [Ex. 1-408]	91
Cc1cc(CN2CCC(O)=C(C(=O)NCC(=O)O)C2=O)cnc1Oc1ccc(Cl)cc1 [Ex. 1-409]	98
Cc1cc(CN2CCC(O)=C(C(=O)NCC(=O)O)C2=O)cnc1OCC(F)(F)F [Ex. 1-410]	82
Cc1cc(CN2CCC(O)=C(C(=O)NCC(=O)O)C2=O)cnc1OCCC1CC1 [Ex. 1-411]	90
O=C(O)CNC(=O)C1=C(O)CCN(C[C@H]2CC[C@H](Oc3ccc(F)cn3)CC2)C1=O [Ex. 1-412]	87
